This note sets out measurements from patent US20160237059A1, “HETEROCYCLIC SUBSTITUTED TRIFLUOROMETHYL PYRIMIDINONES AND THEIR USE” (BAYER PHARMA AKTIENGESELLSCHAFT, priority 2013, published 2016).

For experiment [1], the target named is T1, murine CCR2 (Mus musculus, UniProt P51683).
T1 construct: host or cells: U2OS β-arrestin cell line
Nature of the experiment: Functional β-arrestin recruiting test with murine MCP-1 (B-2b). It counts as cell-based. As to conditions: U2OS β-arrestin cell line transfected with murine CCR2; agonist murine MCP-1; in some cases means of several determinations. Summed up:
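In a PathHunter β-galactosidase complementation assay, U2OS cells expressing murine CCR2 were preincubated 10 min with compound (10-point, 1:3.16 dilutions), then challenged with murine MCP-1 at its predetermined EC50 for 90 min at 37 °C. Luminescence was read after 60 min, and IC50 was fitted with a 4-parameter Hill function.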

In experiment [2] the target is T2, human CCR2 (Homo sapiens, UniProt P41597).
T2 construct: host or cells: Chem-1 cell line
T2 sequence (P41597 1-360 isoform P41597-2): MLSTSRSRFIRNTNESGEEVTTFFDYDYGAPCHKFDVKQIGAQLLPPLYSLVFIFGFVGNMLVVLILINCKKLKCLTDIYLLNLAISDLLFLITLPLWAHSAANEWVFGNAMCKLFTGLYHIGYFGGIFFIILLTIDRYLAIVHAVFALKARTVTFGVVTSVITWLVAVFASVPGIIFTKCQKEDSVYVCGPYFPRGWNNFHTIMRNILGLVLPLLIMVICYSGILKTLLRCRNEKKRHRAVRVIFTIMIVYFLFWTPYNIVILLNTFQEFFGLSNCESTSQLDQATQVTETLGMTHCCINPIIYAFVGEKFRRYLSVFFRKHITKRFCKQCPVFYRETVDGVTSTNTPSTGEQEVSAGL
Nature of the experiment: Functional Ca2+ release test (B-1). It is filed as cell-based. As to conditions: Chem-1 cell line transfected with human CCR2; 50% inhibition of the MCP-1 effect, MCP-1 at EC50 (about 5 nM); in some cases means of several determinations. Summed up: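 Inhibition of MCP-1-evoked Ca2+ release was measured over 120 s by fluorescence imaging in Fluo-4-loaded, human CCR2-transfected Chem-1 cells. Compounds, tested in 10-point 1:3.16 series, were added 10 min before agonist at its EC50 (typically about 5 nM). IC50 values were obtained by 4-parameter logistic fitting.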

T1 sequence (P51683 whole entry): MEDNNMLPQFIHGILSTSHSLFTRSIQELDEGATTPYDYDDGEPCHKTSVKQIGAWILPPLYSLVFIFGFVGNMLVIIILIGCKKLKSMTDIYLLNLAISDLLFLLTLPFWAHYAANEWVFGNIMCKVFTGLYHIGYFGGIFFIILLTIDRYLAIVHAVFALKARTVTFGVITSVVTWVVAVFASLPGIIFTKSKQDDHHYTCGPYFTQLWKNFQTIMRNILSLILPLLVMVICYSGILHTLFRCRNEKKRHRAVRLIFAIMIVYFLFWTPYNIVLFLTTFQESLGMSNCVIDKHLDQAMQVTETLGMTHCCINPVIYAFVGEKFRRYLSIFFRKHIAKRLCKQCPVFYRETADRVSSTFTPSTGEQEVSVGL

As to `COc1cnn(-c2nc(C(F)(F)F)c(Oc3ccc(Cl)c(Cl)c3)c(=O)[nH]2)c1` [Example 249], the half-maximal inhibitory concentration (IC50) came out at 254 nM in experiment [1] and 0.9 nM in experiment [2].

As for `Cc1cc(Oc2c(C(F)(F)F)nc(-c3cc[nH]n3)[nH]c2=O)ccc1Cl` [Example 223], the values for the IC50 in experiment [1] and in experiment [2] were 21 nM and 0.1 nM, respectively.

As to `Cc1cc(-c2nc(C(F)(F)F)c(Oc3ccc(Cl)c(C(F)(F)F)c3)c(=O)[nH]2)no1` [Example 232], the values for the IC50 in experiment [1] and in experiment [2] were 170 nM and 0.3 nM, respectively.

On to `Cc1cc(-c2nc(C(F)(F)F)c(Oc3ccc(Cl)c(Cl)c3)c(=O)[nH]2)no1` [Example 231], for which the figures for the 50% inhibitory concentration (IC50) in experiment [1] and in experiment [2] were 249 nM and 0.1 nM, respectively.

Consider `CC(C)(C)Oc1cccc(-c2nc(C(F)(F)F)c(Oc3ccc(Cl)c(Cl)c3)c(=O)[nH]2)n1` [Example 146, 2-(6-tent-butoxypyridin-2-yl)-5-(3,4-dichlorophenoxy)-6-(trifluoromethyl)pyrimidin-4(3H)-one], for which the results for the IC50 in experiment [1] and in experiment [2] were 3500 nM and 404 nM, respectively.

Consider `CC(=O)Nc1ccc2c(-c3nc(C(F)(F)F)c(Oc4ccc(Cl)c(C(F)(F)F)c4)c(=O)[nH]3)noc2c1` [Example 209], for which the IC50 was found to be 368 nM in experiment [1] and 22 nM in experiment [2].

For `CNc1ccnc(-c2nc(C(F)(F)F)c(Oc3ccc(Cl)c(Cl)c3)c(=O)[nH]2)c1` [Example 168, 5-(3,4-dichlorophenoxy)-2-[4-(methylamino)pyridin-2-yl]-6-(trifluoromethyl)pyrimidin-4(3H)-one], the results for the IC50 in experiment [1] and in experiment [2] were 1210 nM and 25 nM, respectively.

Turning to `Nc1ccc(-c2nc(C(F)(F)F)c(Oc3ccc(Cl)c(C(F)(F)F)c3)c(=O)[nH]2)nn1` [Example 153, 2-(6-aminopyridazin-3-yl)-5-[4-chloro-3-(trifluoromethyl)phenoxy]-6-(trifluoromethyl)pyrimidin-4(3H)-one], the concentration for half-maximal inhibition (IC50) in experiment [1] worked out at 87 nM; in experiment [2] it was 0.7 nM.

On to `O=c1[nH]c(C2CCNCC2)nc(C(F)(F)F)c1Oc1ccc(Cl)c(C(F)(F)F)c1` [Example 259, 5-[4-chloro-3-(trifluoromethyl)phenoxy]-2-(piperidin-4-yl)-6-(trifluoromethyl)pyrimidin-4(3H)-one], for which the IC50 in experiment [1] came out at 3530 nM; in experiment [2] it was 624 nM.

Regarding `CC(=O)Nc1ccc(-c2nc(C(F)(F)F)c(Oc3ccc(Cl)c(Cl)c3)c(=O)[nH]2)nc1` [Example 202], the values for the half-inhibitory concentration (IC50) in experiment [1] and in experiment [2] were 212 nM and 0.9 nM, respectively.

With `Cc1cnc(-c2nc(C(F)(F)F)c(Oc3ccc(Cl)c(C(F)(F)F)c3)c(=O)[nH]2)[nH]1` [Example 242], the figures for the concentration for half-maximal inhibition (IC50) in experiment [1] and in experiment [2] were 153 nM and 1.8 nM, respectively.

In the case of `COc1nc(N)n(-c2nc(C(F)(F)F)c(Oc3ccc(Cl)c(Cl)c3)c(=O)[nH]2)n1` [Example 254], the IC50 in experiment [1] was determined as 613 nM; in experiment [2] it was 15 nM.

Take `O=c1[nH]c(-c2nsc(Cl)c2Cl)nc(C(F)(F)F)c1Oc1ccc(Cl)c(C(F)(F)F)c1` [Example 228]: the results for the half-inhibitory concentration (IC50) in experiment [1] and in experiment [2] were 227 nM and 5.3 nM, respectively.

In the case of `O=c1[nH]c(-c2ncccc2OC(F)(F)F)nc(C(F)(F)F)c1Oc1ccc(Cl)c(Cl)c1` [Example 203], the IC50 in experiment [1] stood at 423 nM; in experiment [2], 15 nM.

In the case of `COc1csnc1-c1nc(C(F)(F)F)c(Oc2ccc(Cl)c(C(F)(F)F)c2)c(=O)[nH]1` [Example 238], the half-inhibitory concentration (IC50) amounted to 39 nM in experiment [1] and 0.9 nM in experiment [2].

With `COc1nccnc1-c1nc(C(F)(F)F)c(Oc2ccc(Cl)c(C(F)(F)F)c2)c(=O)[nH]1` [Example 116], the half-maximal inhibitory concentration (IC50) in experiment [1] came out at 37 nM; in experiment [2], 0.3 nM.

`CC(C)Oc1cnn(-c2nc(C(F)(F)F)c(Oc3ccc(Cl)c(Cl)c3)c(=O)[nH]2)c1` [Example 250]: the results for the IC50 in experiment [1] and in experiment [2] were 942 nM and 4.1 nM, respectively.

Turning to `COc1cncnc1-c1nc(C(F)(F)F)c(Oc2ccc(Cl)c(Cl)c2)c(=O)[nH]1` [Example 143, 5-(3,4-dichlorophenoxy)-5′-methoxy-6-(trifluoromethyl)-2,4′-bipyrimidin-4(3H)-one], the 50% inhibitory concentration (IC50) in experiment [1] stood at 86 nM; in experiment [2], 1.1 nM.

Take `CS(=O)(=O)c1cccnc1-c1nc(C(F)(F)F)c(Oc2ccc(Cl)c(Cl)c2)c(=O)[nH]1` [Example 268, 5-(3,4-Dichlorophenoxy)-2-[3-(methylsulphonyl)pyridin-2-yl]-6-(trifluoromethyl)pyrimidin-4(3H)-one]: the figures for the half-inhibitory concentration (IC50) in experiment [1] and in experiment [2] were 484 nM and 5.8 nM, respectively.

`O=c1[nH]c(-c2cc(C3CC3)on2)nc(C(F)(F)F)c1Oc1ccc(Cl)c(C(F)(F)F)c1` [Example 220]: the IC50 in experiment [1] worked out at 775 nM; in experiment [2], 3.5 nM.

Turning to `Nc1cnc2cnn(-c3nc(C(F)(F)F)c(Oc4ccc(Cl)c(Cl)c4)c(=O)[nH]3)c2c1` [Example 257], the half-maximal inhibitory concentration (IC50) in experiment [1] stood at 276 nM; in experiment [2] it was 2.8 nM.

As to `CN(C)c1cccc(-c2nc(C(F)(F)F)c(Oc3ccc(Cl)c(C(F)(F)F)c3)c(=O)[nH]2)n1` [Example 135, 5-[4-chloro-3-(trifluoromethyl)phenoxy]-2-[6-(dimethylamino)pyridin-2-yl]-6-(trifluoromethyl)pyrimidin-4(3H)-one], the results for the half-inhibitory concentration (IC50) in experiment [1] and in experiment [2] were 1570 nM and 14 nM, respectively.

On to `COCc1cc(-c2nc(C(F)(F)F)c(Oc3ccc(Cl)c(C(F)(F)F)c3)c(=O)[nH]2)no1` [Example 221], for which the IC50 in experiment [1] stood at 447 nM; in experiment [2], 1.3 nM.

On to `Cc1cnc(-c2nc(C(F)(F)F)c(Oc3ccc(Cl)c(Cl)c3)c(=O)[nH]2)cc1C` [Example 212], for which the concentration for half-maximal inhibition (IC50) in experiment [1] is 1700 nM; in experiment [2], 2.6 nM.

Take `COc1ccc(-c2nc(C(F)(F)F)c(Oc3ccc(Cl)c(C(F)(F)F)c3)c(=O)[nH]2)nc1` [Example 119, 5-[4-chloro-3-(trifluoromethyl)phenoxy]-2-(5-methoxypyridin-2-yl)-6-(trifluoromethyl)pyrimidin-4(3H)-one]: the IC50 was determined as 185 nM in experiment [1] and 0.4 nM in experiment [2].

Consider `CC(C)Oc1ccnc(-c2nc(C(F)(F)F)c(Oc3ccc(Cl)c(Cl)c3)c(=O)[nH]2)c1` [Example 145, 5-(3,4-dichlorophenoxy)-2-(4-isopropoxypyridin-2-yl)-6-(trifluoromethyl)pyrimidin-4(3H)-one], for which the IC50 amounted to 2810 nM in experiment [1] and 322 nM in experiment [2].

As for `O=c1[nH]c(-n2ccc(C(F)(F)F)n2)nc(C(F)(F)F)c1Oc1ccc(Cl)c(Cl)c1` [Example 252], the results for the IC50 in experiment [1] and in experiment [2] were 6940 nM and 113 nM, respectively.

As for `CNc1cccc(-c2nc(C(F)(F)F)c(Oc3ccc(Cl)c(Cl)c3)c(=O)[nH]2)n1` [Example 166, 5-(3,4-dichlorophenoxy)-2-[6-(methylamino)pyridin-2-yl]-6-(trifluoromethyl)pyrimidin-4(3H)-one], the IC50 in experiment [1] was determined as 277 nM; in experiment [2], 8.8 nM.

As to `CC(C)(C)Oc1ccnc(-c2nc(C(F)(F)F)c(Oc3ccc(Cl)c(C(F)(F)F)c3)c(=O)[nH]2)c1` [Example 160, 2-(4-tert-butoxypyridin-2-yl)-5-[4-chloro-3-(trifluoromethyl)phenoxy]-6-(trifluoromethyl)pyrimidin-4(3H)-one], the half-inhibitory concentration (IC50) came to 1960 nM in experiment [1] and 62 nM in experiment [2].

Turning to `O=c1[nH]c(-c2ncccc2C(F)(F)F)nc(C(F)(F)F)c1Oc1ccc(Cl)c(Cl)c1` [Example 185, 5-(3,4-dichlorophenoxy)-6-(trifluoromethyl)-2-[3-(trifluoromethyl)pyridin-2-yl]pyrimidin-4(3H)-one], the results for the concentration for half-maximal inhibition (IC50) in experiment [1] and in experiment [2] were 405 nM and 27 nM, respectively.

Take `O=c1[nH]c(-c2ccnnc2)nc(C(F)(F)F)c1Oc1ccc(Cl)c(Cl)c1` [Example 126, 5-(3,4-dichlorophenoxy)-2-(pyridazin-4-yl)-6-(trifluoromethyl)pyrimidin-4(3H)-one]: the figures for the IC50 in experiment [1] and in experiment [2] were 13900 nM and 1120 nM, respectively.

For the compound `Cn1ccc(-c2nc(C(F)(F)F)c(Oc3ccc(Cl)c(Cl)c3)c(=O)[nH]2)n1` [Example 225], the values for the half-maximal inhibitory concentration (IC50) in experiment [1] and in experiment [2] were 150 nM and 0.3 nM, respectively.

`Cc1ccc(-c2nc(C(F)(F)F)c(Oc3ccc(Cl)c(C(F)(F)F)c3)c(=O)[nH]2)nc1C` [Example 158, 5-[4-chloro-3-(trifluoromethyl)phenoxy]-2-(5,6-dimethylpyridin-2-yl)-6-(trifluoromethyl)pyrimidin-4(3H)-one]: the IC50 in experiment [1] turned out to be 983 nM; in experiment [2], 8.7 nM.

As for `CSc1ccnc(-c2nc(C(F)(F)F)c(Oc3ccc(Cl)c(Cl)c3)c(=O)[nH]2)c1` [Example 192, 5-(3,4-dichlorophenoxy)-2-[4-(methylsulphanyl)pyridin-2-yl]-6-(trifluoromethyl)pyrimidin-4(3H)-one], the IC50 amounted to 758 nM in experiment [1] and 11 nM in experiment [2].

As to `O=c1[nH]c(-c2ccsn2)nc(C(F)(F)F)c1Oc1ccc(Cl)c(Cl)c1` [Example 233], the IC50 in experiment [1] stood at 43 nM; in experiment [2], 0.2 nM.
